Data set [1] concerns transient focal cerebral ischemic model (tMCAO). As to the kind of experiment: Cerebral infarct volume of tMCAO rats (2 h middle cerebral artery occlusion, 24 h reperfusion, TTC staining). It is filed as in vivo, rat. To be noted: 15 min after ischemia; for effect on infarct volume (in words): oral, l-NBP and d-NBP 20 and 40 mg/kg, dl-NBP 40 and 80 mg/kg, vs. vehicle; for reduction of infarct volume vs. vehicle group: tMCAO rats, p<0.001.

For data set [2], the system named is acute ischemic cerebral stroke. To be noted: administration group; 192 cases multi centered, random, double blinded, placebo control (placebo 41.0%); cited from earlier work.
Data set [3] relates to transient focal cerebral ischemic model (tMCAO). As to the kind of experiment: Neurological behavioral evaluation of tMCAO rats (score 0-4). To be noted: for improvement of neurological symptoms (in words): oral, d-NBP 20 and 40 mg/kg, dl-NBP 40 and 80 mg/kg, vs. vehicle; for mean neurological score: 15 min after ischemia, scored at 24 h, vehicle 2.6±0.3.
Description: Male Wistar rats weighed 280-320 g were used, with each 5 rats kept in one cage. Animals were allowed free access to food and water at room temperature controlled at 23° C. The rats were anesthetized with 40 mg/kg of sodium pentobarbital. Under the surgical microscope, a midline neck skin incision was make to expose the right common cartotid artery, and the internal carotid artery (ICA) and external carotid artery (ECA) were then separated free from surrounding nerves and fascia, and the anastomotic branch was ligated. The ECA were ligated and cut, pulled to be straight and in line with ICA. A nylon suture with rounded tip and the diameter of 0.28 mm (coated with poly-L-lysine) was introduced from ECA into the lumen of the ICA for about 20 mm, advancing endocranially to the starting point of middle cerebral artery.
After 2 h of ischemia, the nylon suture was carefully withdrawn, and the ECA was ligated at the site of opening. The rats were then sutured and placed back into the cage, and allowed to reperfuse for 24 h. Room temperature throughout the operation was kept at 24-25° C. The rats were placed on the heating plate of 37° C. to maintain the body temperature throughout the operation. The administration was performed 15 minutes after ischemia.
Rats were divided into eight groups with 10 rats in each group. Group 1 was vehicle control with 1 ml/kg of vegetable oil; groups 2) and 3) were 40 and 80 mg/kg of dl-NBP; groups 4) and 5) were 20 and 40 mg/kg of d-NBP; groups 6) and 7) were 20 and 40 mg/kg of l-NBP; and group 8 was 0.1 mg/kg of MK801. Animals in groups 1-7 were orally administered, and animals in group 8 were intraperitoneally administered.
Neurological behavioral observation was conducted after 24 h of ischemia. Rats were lifted up by tail 1 inch away from the ground, and the conditions of both forelimbs were observed; both shoulders were pushed to observe if there was any difference between the resistances by both sides; the rats were placed down to the ground and their walking conditions were observed. Scores were given in accordance with the following criteria. • 0: strong forelimbs, symmetrically stretching towards the ground; identical resistance of both shoulders, and normal walk. • 1: contralateral shoulder flexion, forelimb flexion; identical resistance of both shoulders, and normal walk. • 2: contralateral shoulder flexion, forelimb flexion; decreased resistance of contralateral shoulder to push; and normal walk. • 3: contralateral shoulder flexion, forelimb flexion; decreased resistance of contralateral shoulder to push; and circling when walking • 4: contralateral shoulder flexion, forelimb flexion; and unable to autonomously move. The higher the score is, the more severe the behavioral disorder of the animal is.
The results were expressed as mean±standard error. Neurological behavioral score and cerebral infarct volume were statistically analyzed using one-way ANOVA and the difference between groups using posthoc LSD test. Result was considered to show a significant difference when p<0.05.
In the next data set the test system is micro-circulation. To be noted: previous studies; cited from earlier work.

Molecules are shown by their SMILES. “Also recorded” adds a separate entry of the source.

`CCCCC1OC(=O)c2ccccc21` (racemic) [dl-NBP, racemic butylphthalide]: the “effect on infarct volume (in words)” value in data set [1] is recorded as “no significant effect; also recorded: no reduction effect”. Moreover, in data set [2], the total effective rate was 70.7%. Besides, the “improvement of neurological symptoms (in words)” value in data set [3] is given as “no significant improvement”.
On to `C[C@]12N[C@H](Cc3ccccc31)c1ccccc12` [MK801], for which, in data set [1] (0.1 mg/kg intraperitoneal), the “reduction of infarct volume vs. vehicle group” value came out at 81.8%. In data set [3] (0.1 mg/kg intraperitoneal, p<0.001), this compound returned a mean neurological score of 0.8. The “adverse behavioral signs in treated animals” value in data set [3] (0.1 mg/kg intraperitoneal, tMCAO rats) was “the limbs were weak, and staggered when sprawling, ataxia occurred, and unilaterally circled”.
On to `CCCC[C@H]1OC(=O)c2ccccc21` [d-NBP, dextro-butylphthalide], for which the “effect on infarct volume (in words)” value in data set [1] is reported as “no significant effect”. The “cerebral protective and micro-circulation improving effect (in words)” value in the data set with micro-circulation is reported as “no such effect”. The “improvement of neurological symptoms (in words)” value in data set [3] is recorded as “no significant improvement”.
On to `CCCC[C@@H]1OC(=O)c2ccccc21` [l-NBP, L-n-butylphthalide], for which the “reduction of infarct volume vs. vehicle group” value in data set [1] (40 mg/kg oral, 24 h reperfusion) came out at 80.4%. In addition, the “effect on infarct volume (in words)” value in data set [1] is “significantly reduced dose-dependently; also recorded: very significantly and dose dependently reduced”. For the same compound, the “cerebral protective and micro-circulation improving effect (in words)” value in the data set with micro-circulation is “also has cerebral protective effect and micro-circulation improving effect”. The mean neurological score in data set [3] (20 mg/kg oral, p<0.01) turned out to be 1.4; in data set [3] (40 mg/kg oral, p<0.001), 1.1.
